The nature of one data set: physchem. As to conditions: kinetic from dmso stock. An outline of the steps: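 DMSO doubling dilutions were diluted twenty-fold into 100 mM citrate (pH 4), PBS (pH 7.4) or carbonate-bicarbonate (pH 9). After 24 h equilibration at room temperature, absorbance was read at 620 nm. The reported value is the highest concentration without measurable precipitate.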
Data set [1] has as its system Staphylococcus aureus (Isolate ID ATCC 29213). Kind of data set: Antibacterial activity, MIC, S. aureus. Format: cell-based. As to conditions: Staphylococcus aureus, ATCC29213, Gram positive strain; broth microdilution or agar dilution. An outline of the steps: (§1)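 MICs determined by broth microdilution or agar dilution according to CLSI guidelines (M7-A7).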
Background: In broth dilution the organism is exposed to a series of concentrations in liquid medium.

Data set [2] relates to Enterococcus faecalis (Isolate ID ATCC 29212). Kind of data set: Antibacterial activity, MIC, E. faecalis. Format: cell-based. The settings on record: Enterococcus faecalis, ATCC29212; Gram positive strain; broth microdilution or agar dilution. An outline of the steps:
as §1

The subject of data set [3] is Streptococcus pyogenes (Isolate ID ATCC 51339). Kind of data set: Antibacterial activity, MIC, S. pyogenes. Type of data set: cell-based. As to conditions: Streptococcus pyogenes, ATCC51339, Gram positive strain; broth microdilution or agar dilution. An outline of the steps:
as §1

Data set [4] deals with Haemophilus influenzae (Isolate ID ATCC 49247). The experiment in a line: Antibacterial activity, MIC, H. influenzae. The settings on record: Haemophilus influenzae, ATCC49247; Gram negative strain; broth microdilution or agar dilution. Format: cell-based. The gist of the method:
as §1

Setting [5] is: pH 7.4, aqueous buffer, Max Solubility.
The mark [6] stands for this setting: pH 7.4, aqueous buffer, Solubility (pH 7.4).
[7] abbreviates: pH 7.4, aqueous buffer, Solubility Range.
Where [8] appears, read: pH 7.4, aqueous buffer, Solubility Range (maximum solubility).
Setting [9] is: pH 9, aqueous buffer, Max Solubility.
The mark [10] stands for this setting: pH 9, aqueous buffer, Solubility Range (maximum solubility).

Each structure is given as a SMILES string. In brackets after ≈: the same amount, converted by molar mass. A value given as a limit tells only on which side of the number the result lay.

One may read the solubility as the dissolved amount per volume that the medium holds. Take `CCNC(=O)Nc1nc2cc(-c3cnc(N4CCC(C)(C(=O)O)CC4)nc3)cc(C#Cc3cccnc3)c2s1` [Compound 148]: the solubility at 24 h is at least 0.8 mg/mL in “physchem” (setting [5]), at least 0.8 mg/mL in the data set “physchem” (setting [6]), above 0.8 mg/mL in “physchem” (setting [7]) and above 0.8 mg/mL in the data set “physchem” (setting [8]). Further, the MIC is at most 0.25 mg/L in data set [1], at most 0.25 mg/L in data set [2], at most 0.25 mg/L in data set [3] and 0.25 to 1 mg/L (≈ 0.462 to 1.85 µM) in data set [4].

For `CCNC(=O)Nc1nc2cc(-c3cnc(N4CCC(C)(C(=O)O)CC4)nc3)cc(NC(=O)c3ccccn3)c2s1` [Compound 149, 1-(5-(2-(3-ethylureido)-7-(picolinamido)benzo[d]thiazol-5-yl)pyrimidin-2-yl)-4-methylpiperidine-4-carboxylic acid], the solubility at 24 h was at least 0.8 mg/mL in the data set “physchem” (setting [5]), at least 0.8 mg/mL in the data set “physchem” (setting [6]), above 0.8 mg/mL in “physchem” (setting [7]) and above 0.8 mg/mL in “physchem” (setting [8]). Further, the MIC is 1 to 16 mg/L (≈ 1.78 to 28.5 µM) in data set [1], at most 0.25 mg/L in data set [2], 0.25 to 1 mg/L (≈ 0.446 to 1.78 µM) in data set [3] and 1 to 16 mg/L (≈ 1.78 to 28.5 µM) in data set [4].

With `CCNC(=O)Nc1nc2cc(-c3cnc(N4CCC(C)(C(=O)O)CC4)nc3)cc(C#CC3CCCC3)c2s1` [Compound 150], the solubility at 24 h in “physchem” (setting [5]) was at least 0.8 mg/mL; in the data set “physchem” (setting [6]), at least 0.8 mg/mL; in the data set “physchem” (setting [7]), above 0.8 mg/mL; in “physchem” (setting [8]), above 0.8 mg/mL. The MIC in data set [1] was 0.25 to 1 mg/L (≈ 0.469 to 1.88 µM); in data set [2], at most 0.25 mg/L; in data set [3], above 16 mg/L; in data set [4], above 16 mg/L.

Consider `CCNC(=O)Nc1nc2cc(-c3cnc(N4CCC(C)(C(=O)O)CC4)nc3)cc(C#Cc3ccncc3)c2s1` [Compound 151], for which the solubility at 24 h in the data set “physchem” (setting [6]) is 0.4 mg/mL (≈ 739 µM); in the data set “physchem” (setting [7]), 0.4 to 0.8 mg/mL (≈ 739 to 1480 µM); in the data set “physchem” (setting [9]) it was at least 0.8 mg/mL; in “physchem” (setting [10]) it was above 0.8 mg/mL. The MIC in data set [1] is 0.25 to 1 mg/L (≈ 0.462 to 1.85 µM); in data set [2], at most 0.25 mg/L; in data set [3], 0.25 to 1 mg/L (≈ 0.462 to 1.85 µM); in data set [4] it was 1 to 16 mg/L (≈ 1.85 to 29.5 µM).

For the compound `CCNC(=O)Nc1nc2cc(-c3cnc(N4CCC(C)(C(=O)O)CC4)nc3)cc(C#Cc3cccc(OC)n3)c2s1` [Compound 152, 1-[5-[2-(ethylcarbamoylamino)-7-[2-(6-methoxy-2-pyridyl)ethynyl]-1,3-benzothiazol-5-yl]pyrimidin-2-yl]-4-methyl-piperidine-4-carboxylic acid], the solubility at 24 h in “physchem” (setting [6]) was 0.1 mg/mL (≈ 175 µM); in “physchem” (setting [7]), 0.0125 to 0.4 mg/mL (≈ 21.9 to 700 µM); in the data set “physchem” (setting [9]), at least 0.8 mg/mL; in the data set “physchem” (setting [10]) it was above 0.8 mg/mL. For the same compound, the MIC in data set [1] is at most 0.25 mg/L; in data set [2], at most 0.25 mg/L; in data set [3], at most 0.25 mg/L; in data set [4] it was 1 to 16 mg/L (≈ 1.75 to 28 µM).

`CCNC(=O)Nc1nc2cc(-c3cnc(N4CCC(C)(C(=O)O)CC4)nc3)cc(C#Cc3nnc(C)s3)c2s1` [Compound 153]: the solubility at 24 h is 0.1 mg/mL (≈ 178 µM) in “physchem” (setting [6]), 0.0125 to 0.4 mg/mL (≈ 22.2 to 711 µM) in “physchem” (setting [7]), 0.4 mg/mL (≈ 711 µM) in “physchem” (setting [9]) and 0.4 to 0.8 mg/mL (≈ 711 to 1420 µM) in the data set “physchem” (setting [10]). The MIC in data set [1] is 0.25 to 1 mg/L (≈ 0.444 to 1.78 µM); in data set [2] it was at most 0.25 mg/L; in data set [3], 0.25 to 1 mg/L (≈ 0.444 to 1.78 µM); in data set [4], 1 to 16 mg/L (≈ 1.78 to 28.4 µM).

With `CCNC(=O)Nc1nc2cc(-c3cnc(N4CCC(C)(C(=O)O)CC4)nc3)cc(C#Cc3ncccn3)c2s1` [Compound 154], the solubility at 24 h was 0.2 mg/mL (≈ 369 µM) in the data set “physchem” (setting [6]), 0.0125 to 0.4 mg/mL (≈ 23 to 737 µM) in “physchem” (setting [7]), 0.4 mg/mL (≈ 737 µM) in the data set “physchem” (setting [9]) and 0.4 to 0.8 mg/mL (≈ 737 to 1470 µM) in “physchem” (setting [10]). The MIC is 1 to 16 mg/L (≈ 1.84 to 29.5 µM) in data set [1], at most 0.25 mg/L in data set [2], 0.25 to 1 mg/L (≈ 0.461 to 1.84 µM) in data set [3] and 1 to 16 mg/L (≈ 1.84 to 29.5 µM) in data set [4].

`CCNC(=O)Nc1nc2cc(-c3cnc(N4CCC(C)(C(=O)O)CC4)nc3)cc(C#Cc3ccncn3)c2s1` [Compound 155]: the solubility at 24 h in the data set “physchem” (setting [6]) is 0.4 mg/mL (≈ 737 µM); in the data set “physchem” (setting [7]), 0.4 to 0.8 mg/mL (≈ 737 to 1470 µM); in the data set “physchem” (setting [9]), at least 0.8 mg/mL; in the data set “physchem” (setting [10]), above 0.8 mg/mL. Further, the MIC in data set [1] is 1 to 16 mg/L (≈ 1.84 to 29.5 µM); in data set [2] it was at most 0.25 mg/L; in data set [3] it was 0.25 to 1 mg/L (≈ 0.461 to 1.84 µM); in data set [4] it was 1 to 16 mg/L (≈ 1.84 to 29.5 µM).

For `CCNC(=O)Nc1nc2cc(-c3cnc(N4CCC(C)(C(=O)O)CC4)nc3)cc(C#Cc3nccs3)c2s1` [Compound 156], the solubility at 24 h in the data set “physchem” (setting [5]) was at least 0.8 mg/mL; in the data set “physchem” (setting [6]), at least 0.8 mg/mL; in the data set “physchem” (setting [7]), above 0.8 mg/mL; in the data set “physchem” (setting [8]), above 0.8 mg/mL. Moreover, the MIC in data set [1] was at most 0.25 mg/L; in data set [2] it was at most 0.25 mg/L; in data set [3] it was at most 0.25 mg/L; in data set [4], 1 to 16 mg/L (≈ 1.83 to 29.2 µM).

On to `CCNC(=O)Nc1nc2cc(-c3cnc(N4CCC(C)(C(=O)O)CC4)nc3)cc(C#Cc3cnccn3)c2s1` [Compound 157], for which the solubility at 24 h in the data set “physchem” (setting [5]) is at least 0.8 mg/mL; in “physchem” (setting [6]), at least 0.8 mg/mL; in “physchem” (setting [7]) it was above 0.8 mg/mL; in the data set “physchem” (setting [8]), above 0.8 mg/mL. The MIC in data set [1] is at most 0.25 mg/L; in data set [2] it was at most 0.25 mg/L; in data set [3], at most 0.25 mg/L; in data set [4], 0.25 to 1 mg/L (≈ 0.461 to 1.84 µM).

Turning to `CCNC(=O)Nc1nc2cc(-c3cnc(CN4CCC(C)(C(=O)O)CC4)nc3)cc(-c3ccccn3)c2s1` [Compound 160], the solubility at 24 h was at least 0.8 mg/mL in the data set “physchem” (setting [5]), at least 0.8 mg/mL in “physchem” (setting [6]), above 0.8 mg/mL in the data set “physchem” (setting [7]) and above 0.8 mg/mL in the data set “physchem” (setting [8]). Also, the MIC in data set [1], in data set [2], in data set [3] and in data set [4] was 1 to 16 mg/L (≈ 1.88 to 30.1 µM) in each case.

Take `CCNC(=O)Nc1nc2cc(-c3cnc(N4CCCC4(C)C(=O)O)nc3)cc(-c3ccccn3)c2s1` (stereo not drawn) [Compound 163]: the solubility at 24 h in “physchem” (setting [5]) was at least 0.8 mg/mL; in the data set “physchem” (setting [6]), at least 0.8 mg/mL; in “physchem” (setting [7]), above 0.8 mg/mL; in “physchem” (setting [8]), above 0.8 mg/mL. Also, the MIC in data set [1] was 0.25 to 1 mg/L (≈ 0.496 to 1.99 µM); in data set [2], at most 0.25 mg/L; in data set [3] it was at most 0.25 mg/L; in data set [4], 0.25 to 1 mg/L (≈ 0.496 to 1.99 µM).

Turning to `CCNC(=O)Nc1nc2cc(-c3cnc(N4CCC(C(=O)O)(C(F)(F)F)C4)nc3)cc(-c3ccccn3)c2s1` (stereo not drawn) [Compound 164], the solubility at 24 h in “physchem” (setting [6]) was at least 0.8 mg/mL; in the data set “physchem” (setting [7]), above 0.8 mg/mL. The MIC in data set [1] was 1 to 16 mg/L (≈ 1.79 to 28.7 µM); in data set [2], 1 to 16 mg/L (≈ 1.79 to 28.7 µM); in data set [3] it was 0.25 to 1 mg/L (≈ 0.448 to 1.79 µM); in data set [4], above 16 mg/L.

For the compound `CCNC(=O)Nc1nc2cc(-c3cnc(N4CC5CCCC5(C(=O)O)C4)nc3)cc(-c3ccccn3)c2s1` (stereo not drawn) [Compound 165], the solubility at 24 h in “physchem” (setting [6]) is at least 0.8 mg/mL; in the data set “physchem” (setting [7]), above 0.8 mg/mL. In addition, the MIC in data set [1] was at most 0.25 mg/L; in data set [2], at most 0.25 mg/L; in data set [3], at most 0.25 mg/L; in data set [4], 1 to 16 mg/L (≈ 1.89 to 30.2 µM).

Consider `CCNC(=O)Nc1nc2cc(-c3cnc(N4CCC(NC(=O)OC(C)(C)C)(C(=O)OC)CC4)nc3)cc(-c3ccccn3)c2s1` [Compound 167], for which the solubility at 24 h in “physchem” (setting [6]) is 0.0125 mg/mL (≈ 19.8 µM); in “physchem” (setting [7]) it was 0.0125 to 0.4 mg/mL (≈ 19.8 to 632 µM). The MIC in data set [1] is 1 to 16 mg/L (≈ 1.58 to 25.3 µM); in data set [2], at most 0.25 mg/L; in data set [3], at most 0.25 mg/L; in data set [4], above 16 mg/L.

As for `CCNC(=O)Nc1nc2cc(-c3cnc(N4CCC(N)(C(=O)OC)CC4)nc3)cc(-c3ccccn3)c2s1` [Compound 168], the solubility at 24 h in “physchem” (setting [6]) was 0.025 mg/mL (≈ 46.9 µM); in the data set “physchem” (setting [7]) it was 0.0125 to 0.4 mg/mL (≈ 23.5 to 751 µM). Besides, the MIC in data set [1] is 0.25 to 1 mg/L (≈ 0.469 to 1.88 µM); in data set [2] it was at most 0.25 mg/L; in data set [3] it was 1 to 16 mg/L (≈ 1.88 to 30 µM); in data set [4], above 16 mg/L.

For the origin of these results see US9181234B2, “Antibacterial compounds” (priority 2010, dated 2015).
